The supplement of paper PMC11208160

assay: recombinant UMI read abundance after kanamycin selection (control-corrected) (log10(CPM+1)); higher = more efficient recombination; extreme values may be limits of the assay; sequences stand for … in AGTGCAGAGAAAATCGGCCAGTTTTCTCTGCCTGCAGTCCGCATGCCGTGGGACCCCTTGGGTTCTAACCTGTTGCCTAGATTTATGCAGCGGACTGCCTTTCTCCCAAAGTGATAAACCGG…AGGTTGGTTTCACT; site = the 11-nt donor
Method: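 Pooled E. coli donor-specificity screen for the IS621 bridge recombinase. Each library member carries a reprogrammed 11-nt donor and a full-length LE bridge RNA expressed in cis from the natural promoter, with a paired donor-binding loop (8-nt LDG + 4-nt RDG) and a target-binding loop fixed to T5. It is co-electroporated with a T5 target plasmid; recombinase is induced with 0.07 mM IPTG and recombinants are selected on kanamycin. UMIs are counted as CPM, averaged over two biological replicates and corrected by the unselected control. Molecule = full bridge RNA written as DNA, built from the T5 scaffold: LDG = donor specificity nt 1-8, RDG = reverse complement of nt 8-11.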
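Also: IS621 bridge recombinase in Escherichia coli cells against a fixed T5 target plasmid.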

Sequence	recombinant UMI read abundance (log10)
ACCGAACCATGGACCGGTTTTCCCGGTAATCCGTATTTGGA (site ACCGAACCTTC)	0.00378
ACCGAATCATGGACCGGTTTTCCCGGTAATCCGTATTTGCA (site ACAGTATCTTG)	0
ACCGAATCATGGACCGGTTTTCCCGGTAATCCGTATTTGCA (site ACCGAATCTTG)	2.16
ACCGACGCATGGACCGGTTTTCCCGGTAATCCGTATTTGTT (site ACCGACGCTAA)	0.786
ACCGACTCATGGACCGGTTTTCCCGGTAATCCGTATTTGCC (site ACCGACTCTGG)	1.78
ACCGATCCATGGACCGGTTTTCCCGGTAATCCGTATTTGCA (site ACCGATCCTTG)	0.164
ACCGCTACATGGACCGGTTTTCCCGGTAATCCGTATTTGCG (site ACCGCTACTCG)	1.01
ACCGCTGCATGGACCGGTTTTCCCGGTAATCCGTATTTGGC (site ACCGCTGCTGC)	2.08
ACCGGAACATGGACCGGTTTTCCCGGTAATCCGTATTTGTG (site ACCGGAACTCA)	1.41
ACCGGGACATGGACCGGTTTTCCCGGTAATCCGTATTTGAG (site ACCGGGACTCT)	1.23
ACCGGTCCATGGACCGGTTTTCCCGGTAATCCGTATTTGCC (site ACCGGTCCTGG)	0
ACCGGTGCATGGACCGGTTTTCCCGGTAATCCGTATTTGAG (site ACCGGTGCTCT)	1.35
ACCGTATCATGGACCGGTTTTCCCGGTAATCCGTATTTGCT (site ACAGTATCTTG)	0
ACCGTATCATGGACCGGTTTTCCCGGTAATCCGTATTTGCT (site ACCGTATCTAG)	2.39
ACCGTATCATGGACCGGTTTTCCCGGTAATCCGTATTTGGT (site ACCGTATCTAC)	1.32
ACCTAAGCATGGACCGGTTTTCCCGGTAATCCGTATTTGGC (site ACCTAAGCTGC)	2.22

Sequence	recombinant UMI read abundance (log10)
ACCTACCCATGGACCGGTTTTCCCGGTAATCCGTATTTGAC (site ACCTACCCTGT)	0.183
ACCTGATCATGGACCGGTTTTCCCGGTAATCCGTATTTGAT (site ACCTGATCTAT)	0.427
ACCTGCCCATGGACCGGTTTTCCCGGTAATCCGTATTTGTT (site ACCTGCCCTAA)	0.188
ACCTGGACATGGACCGGTTTTCCCGGTAATCCGTATTTGCA (site ACCTGGACTTG)	1.82
ACCTGGACATGGACCGGTTTTCCCGGTAATCCGTATTTGTG (site ACCTGGACTCA)	0.502
ACCTGGGCATGGACCGGTTTTCCCGGTAATCCGTATTTGTC (site ACCTGGGCTGA)	0
ACCTTAGCATGGACCGGTTTTCCCGGTAATCCGTATTTGAA (site ACCTTAGCTTT)	0.29
ACCTTAGCATGGACCGGTTTTCCCGGTAATCCGTATTTGGT (site ACCTTAGCTAC)	0.271
ACCTTCTCATGGACCGGTTTTCCCGGTAATCCGTATTTGGG (site ACCTTCTCTCC)	0.00668
ACCTTCTCATGGACCGGTTTTCCCGGTAATCCGTATTTGGG (site CCCTTCTCTCC)	0.00967
ACCTTCTCATGGACCGGTTTTCCCGGTAATCCGTATTTGGG (site GCCTTCTCTCC)	0.00741
ACCTTCTCATGGACCGGTTTTCCCGGTAATCCGTATTTGGG (site TCCTTCTCTCC)	0.00341
ACGAACTCATGGACCGGTTTTCCCGGTAATCCGTATTTGTC (site ACGAACTCTGA)	2.03
ACGAAGACATGGACCGGTTTTCCCGGTAATCCGTATTTGTA (site ACGAAGACTTA)	2.82
ACGAAGACATGGACCGGTTTTCCCGGTAATCCGTATTTGTA (site AGGAAGACTTG)	0
ACGAAGCCATGGACCGGTTTTCCCGGTAATCCGTATTTGGG (site ACGAAGCCTCC)	0.0169
